Data on seven compounds can be found in ChEMBL document CHEMBL5143573, “Cyclohumulanoid Sesquiterpenes Induced by the Noncompetitive Coculture of Phellinus orientoasiaticus and Xylodon flaviporus” (J Nat Prod, 2022).

Data set [1] relates to Caco-2. The data set can be described thus: Cytotoxicity against human Caco-2 cells assessed as reduction in cell viability at 10 to 100 uM incubated for 48 hrs by MTT assay. The format is toxicity, cell-based. As to conditions: caco-2, 48 h, dose 10-100 µM. A general note: Tetrazolium dyes change colour on reduction, which living cells bring about.
In data set [2] the test system is RAW264.7. The experiment in a line: Antiinflammatory activity in mouse RAW264.7 cells assessed as inhibition of LPS-induced NO production incubated for 20 hrs by Griess reagent based assay. The format is functional, cell-based. The conditions noted are these: dose 10-100 µM, DDE = dose-dependent effect. (Griess reagent forms a coloured azo dye with nitrite.)
Data set [3] deals with RAW264.7. The experiment in a line: Antiinflammatory activity in mouse RAW264.7 cells assessed as inhibition of LPS-induced NO production at 100 uM incubated for 20 hrs by Griess reagent based assay relative to control. The format is functional.
For data set [4], the system named is RAW264.7. The experiment in a line: Cytotoxicity against LPS-stimulated mouse RAW264.7 cells assessed as reduction in cell viability at 10 to 100 uM incubated for 20 hrs by MTT assay. As to conditions: raw264.7, 20 h, dose 10-100 µM. The format is toxicity, cell-based.

The term inhibition denotes the drop in the measured response relative to a control, in per cent. Turning to `CC1=C(CO)[C@H](C)C[C@@H]2C[C@](C)(C(=O)O)C=C12`, the figures for the Activity result in data set [1], in data set [2] and in data set [4] were “Non-Toxic”, “Dde” and “Non-Toxic”, respectively. In addition, the inhibition at 100 µM in data set [3] amounted to 34.8%.

As to `CC1=C2C[C@@](C)(C(=O)O)C[C@H]2C[C@]2(C)C[C@H](O)[C@]12O`, the Activity result in data set [1] was “Non-Toxic”; in data set [2], “Dde”; in data set [4], “Non-Toxic”. The inhibition at 100 µM in data set [3] came to 36.4%.

On to `CC1=C2C[C@@](C)(C(=O)O)C[C@H]2C[C@@H](CO)C12CC2`, for which the Activity result was “Non-Toxic” in data set [1], “Dde” in data set [2] and “Non-Toxic” in data set [4].

On to `CC1=C2C[C@@](C)(C(=O)O)C[C@H]2C[C@]2(CO)CC[C@]12O`, for which the Activity entry is “Non-Toxic” in data set [1], “Dde” in data set [2] and “Non-Toxic” in data set [4].

With `C[C@H]1CC[C@H](CO)C(CO)=C2[C@H]1CC(C)(C)[C@@H]2O`, the Activity entry in data set [1] was “Non-Toxic”; in data set [2], “Dde”; in data set [4] it was “Non-Toxic”.

For `CC1=C2C[C@@](C)(C(=O)O)C[C@H]2C[C@]2(C)CC[C@]12O`, the figures for the Activity result in data set [1], in data set [2] and in data set [4] were “Non-Toxic”, “Dde” and “Non-Toxic”, respectively.

Take `C[C@H]1CC[C@H](CO)[C@H](CO)C2=C[C@](C)(CO)C[C@H]21`: the Activity result is “Non-Toxic” in data set [1], “Dde” in data set [2] and “Non-Toxic” in data set [4]. Besides, the inhibition at 100 µM in data set [3] was 38%.
